Data set [1] deals with P. cynomolgi hypnozoites and schizonts. The data set is described as follows: in vitro liver-stage P. cynomolgi assay in primary rhesus hepatocytes. Type of data set: cell-based, Plasmodium cynomolgi. To be noted: Plasmodium cynomolgi, Hepatocyte, in Macaca mulatta, read-out: inhibition IC50. Here is the method:
(§1) The liver-stage P. cynomolgi assay was designed to identify anti-hypnozoite drugs utilizing a 384-well in vitro culture system[31],[37]. Briefly, cryopreserved primary simian hepatocytes (donor lots XGB, OQB, and QHO: BioIVT, Inc.) were seeded in collagen-coated 384-well plates and infected with P. cynomolgi bastianellii (B strain) sporozoites dissected from infected Anopheles dirus mosquitoes. Test compounds were solubilized in 100% DMSO and serially diluted 2-fold to generate up to a 12-point dose-response curve, maintaining a final DMSO concentration of 0.1% across all wells. Two distinct treatment modes were evaluated. For the prophylactic assay, to assess the prevention of infection, compound exposure began 1-hour post-infection with daily media changes on Days 1 and 2. For the radical cure assay, to assess activity against established liver forms, drugs were administered daily from Day 4 through Day 7 post-infection. […] For readout on Day 8, plates were fixed and stained via immunofluorescence to visualize parasite forms (hypnozoites and schizonts) and hepatocyte nuclei, and images were acquired using an Operetta CLS high-content imaging system (PerkinElmer). Host hepatocyte viability was measured in parallel to determine compound toxicity. Parasite forms were automatically quantified using Harmony 4.9 software, and percent inhibition and toxicity were calculated relative to in-plate DMSO vehicle controls. IC50 and CC50 (half-maximal cytotoxic concentrations) were determined by fitting dose-response data to a four-parameter logistic (variable slope) model using a custom Python script incorporating a grid search algorithm.

A short description of data set [2]: host hepatocyte viability in the P. cynomolgi assay. Type of data set: cell-based, rhesus. To be noted: rhesus monkey; radical cure mode; read-out: cytotoxicity CC50. Here is the method:
as §1

The subject of data set [3] is blood-stage P. yoelii. The data set is described as follows: 4-day suppression murine model, oral. The data set is classed as in vivo, P. yoelii in CF1 mice. The source says:
(§2) Animals were housed at the VAPORHCS in Thoren Maxi-Miser microisolator cages (78 sq. in. floor space) with a maximum density of five females or four males per cage. Cages were maintained on a 12-h light/dark cycle and provided with autoclaved nesting materials (nestlets) for environmental enrichment. All mice had ad libitum access to food and water. Four- to five-week-old female and male outbred CF1 mice (Charles River Laboratories, Raleigh, NC, USA) were randomly assigned to treatment and control groups using a simple randomization procedure (e.g., computer-generated random numbers) to ensure balanced distribution of baseline body weights and starting parasitemia levels across all cohorts. Groups of four mice (n = 4, mean body weight of each group was ~30 g) were infected intravenously with 3.5 × 10^4 P. yoelii (Kenya strain, MRA-428) from a donor animal. Drug administration commenced the day after the animals were inoculated (Day 1). The test drug or the drug combination was dissolved in PEG-400 and administered by oral gavage once daily for 4 successive days in the 4-day suppression model, but only once on Day 1 in the single-dose cure model. Blood was collected via the tail vein with the aid of a syringe needle on Day 5 and then at weekly intervals through Day 28. Blood films were Giemsa-stained and examined microscopically to determine the level of parasitemia. All mice were observed daily to assess clinical signs. Animals with observable parasitemia following the experiments were euthanized; animals cleared of parasitemia from their bloodstream were observed daily with assessment of parasitemia performed weekly until Day 28, at which point, the animal(s) were scored as cured of the infection and then humanely euthanized. All treated mice with a negative smear on Day 28 were considered cured (100% protection). […]

For data set [4], the system named is blood-stage P. yoelii. The data set is described as follows: single-dose cure murine model, oral. The data set is classed as in vivo, P. yoelii in CF1 mice.
Source text: as §2

In data set [5] the test system is luciferase-expressing P. berghei sporozoites. The data set is described as follows: liver-stage prophylaxis murine model with IVIS bioluminescence imaging. The data set is classed as in vivo, P. berghei in Albino C57BL/6 mice. To be noted: Days -1, 0, 1. The source says:
Four- to six-week-old female inbred Albino C57BL/6 mice (18–22 g, Jackson Laboratories, Bar Harbor, ME, USA) were utilized. Animals were assigned unique study numbers via ear tags and cage cards and were randomly assigned to treatment or control groups (n = 5 per group) using a weigh-stratified randomization procedure. All animals were quarantined and acclimatized for 7 days prior to study initiation and were housed in a 12:12 light/dark cycle with food and water provided ad libitum. Mice were infected intravenously with 10^4 luciferase-expressing P. berghei sporozoites (ANKA strain) via tail vein injection on Day 0. Drugs were dissolved in PEG-400 and administered orally once per day on Day -1, Day 0, and Day 1. […] Infection reduction was assessed by comparing the bioluminescence signals emitted by treated groups with signals emitted by the vehicle control-treated group at that time point. Later blood-stage parasitemia was determined via flow cytometry. […] Long-term blood-stage efficacy was evaluated starting on Day 6 post-infection and continued for up to 31 days using flow cytometry.
In vivo antimalarial efficacy studies were performed as described above.

The conditions of data set [6]: cited from earlier work.
On the set-up of data set [7]: method as in reviewer #3 remark. To be noted: in humans; ref reviewer #3 remark; cited from earlier work.
Data set [8] is described as follows: cytotoxicity against HepG2 cells. The data set is classed as cell-based. The note with it: human, read-out: inhibition IC50 vs HepG2. Here is the method: Cytotoxicity was evaluated in human HepG2 liver cells, using an MTT assay. Briefly, HepG2 cells were cultured in complete Dulbecco’s modified Eagle’s medium (DMEM; Gibco-Invitrogen, No. 11995-065) prepared by supplementing DMEM with 10% heat inactivated FBS (Gibco-Invitrogen, No. 16000-036), 100 units/mL penicillin, and 100 µg/mL streptomycin. Cell viability was assessed using trypan blue. Ninety-six-well plates were seeded with 2 × 10^4 cells per well and incubated at 37 °C overnight in a humidified 5% CO2 atmosphere. Test compound plates were prepared with an INTEGRA assist plus station and 96-well plates containing 11 duplicate 2-fold serial dilutions of test compound suspended in DMSO. The diluted test compound was then added to the corresponding well preseeded with HepG2 cells. […] After incubation, 20 µL of a 0.1 mg/mL solution of resazurin diluted in PBS was added to each well, and all plates were subsequently incubated for 3–4 h in an incubator. Absorbance was determined with the Molecular Devices SpectraMax plate reader. Three independent experiments, each in duplicate, were performed, and the IC50 values were determined using GraphPad Prism software (Version 10) using the non-linear regression equation (sigmoidal dose-response, variable slope).

Data set [9] deals with P. falciparum mutant T111 lines. The data set is described as follows: drug susceptibility of T111-selected cyt b mutant lines. The data set is classed as cell-based, Plasmodium falciparum. The note with it: Plasmodium falciparum, DD2, Supplementary Table 4. The protocol:
DNA extractions were performed on clonal parasites using the QIAamp DNA extraction kit (QIAGEN Inc, Valencia, CA) or ZYMO Quick gDNA Miniprep kit (Zymo Research Corp, Irvine, CA). For sequencing of the open reading frame of pfcytb, PCR was performed with genomic DNA using forward and reverse flanking primers for cyt b primer 1: 5’-[…]-3’ and primer 2: 5’-[…]-3’. PCR products were subjected to enzymatic cleanup with ExoSAP-IT (Thermo Fisher Scientific) and sent for Sanger sequencing (Eurofins Genomics, Louisville, KY) with PCR primer 2 paired with an internal forward primer: 5’-[…]-3’ and an internal reverse primer: 5’-[…]-3’. Sequences were assembled using 4Peaks software (Nucleobytes, Amsterdam, Netherlands) and aligned with Clustal Omega (EMBL-EBI). For sequencing of the open reading frame of pfdhodh, PCR was performed with genomic DNA using forward primer: 5’-[…]-3’ and reverse primer: 5’-[…]-3’. PCR products were prepared for Sanger sequencing and analyzed as described above, except using two forward primers: 5’-[…]-3’ and 5’-[…]-3’ and with two reverse primers: 5’-[…]-3’ and 5’-[…]-3’.
(§3) Drug susceptibility assays against P. falciparum strains were performed using a SYBR Green based assay. D6 and Dd2 were obtained from MR4. Tm90-C2B was obtained from WRAIR. Dd2-D1^I22L and ELQ-300 were obtained from VAPORHCS. D10yDHODH was obtained as a courtesy from Dr. Akhil Vaidya at Drexel University. P. yoelii ATV^r and ELQ-300^r clones were obtained from VAPORHCS.

Data set [10] relates to P. falciparum D6, Dd2, Tm90-C2B, Dd2-D1^I22L, D10yDHODH. The data set is described as follows: microbe, parasite or virus in culture. Type of data set: cell-based, Plasmodium falciparum. To be noted: Plasmodium falciparum. The protocol: as §3

Usually IC50 stands for the point on the concentration scale where inhibition reaches its midpoint. A word on the CC50: it is the concentration giving 50% cytotoxicity.

Each structure is given as a SMILES string. Values joined by “and” are separate entries in the source; they are usually repeats but may differ in a detail not shown here. Equal values may be shown once. Read-outs that look alike come from different tables or passages of the source.

On to `CO[C@@H]1[C@@H](OC)[C@H](C)[C@@](O)(CC(=O)O)O[C@H]1[C@H](C)[C@H]1O[C@@]2(CC[C@@](C)([C@H]3CC[C@@](C)([C@@H]4O[C@@H]([C@H]5O[C@](C)(O)[C@H](C)C[C@@H]5C)C[C@@H]4O[C@@H]4C[C@H](OC)[C@@H](OC)[C@H](C)O4)O3)O2)C[C@H](O)[C@H]1C` [MAD, maduramicin], for which the IC50 was below 0.98 nM in data set [1] (prophylactic mode, hypnozoite); below 0.98 nM in data set [1] (prophylactic mode, schizont); 21 nM in data set [1] (radical cure mode, hypnozoite); 41 nM in data set [1] (radical cure mode, schizont). The CC50 at 4 days in data set [2] came to 360 nM.

Regarding `COc1cc(C)c2c(Oc3cccc(C(F)(F)F)c3)c(OC)cc(NC(C)CCCN)c2n1` (centres unmarked) [TQ, tafenoquine], the “ED50 of TQ” value was found to be 0.59 mg/kg/day in the data set on blood-stage P. yoelii [3] (TQ + 0.03 mg/kg/d T111); 0.12 mg/kg/day in the data set on blood-stage P. yoelii [3] (TQ + 0.06 mg/kg/d T111); 0.05 mg/kg/day in the data set on blood-stage P. yoelii [3] (TQ + 0.12 mg/kg/d T111); 1.70 mg/kg/day in the data set with blood-stage P. yoelii [3] (TQ alone, female CF1 mice). Also, the “% survival through Day 28” value in the data set on blood-stage P. yoelii [4] (TQ 15 + T111 0 mg/kg) is 0%; in the data set with blood-stage P. yoelii [4] (TQ 20 + T111 0 mg/kg) it was 25%; in the data set on blood-stage P. yoelii [4] (TQ 30 + T111 0 mg/kg), 75%; with blood-stage P. yoelii [4] (TQ 40 + T111 0 mg/kg) it was 100%. The “number of mice cured on Day 28” value in the data set on blood-stage P. yoelii [4] (TQ 15 + T111 0 mg/kg) is 0/4; in the data set with blood-stage P. yoelii [4] (TQ 20 + T111 0 mg/kg), 1/4; with blood-stage P. yoelii [4] (TQ 30 + T111 0 mg/kg) it was 3/4; with blood-stage P. yoelii [4] (TQ 40 + T111 0 mg/kg) it was “single-dose cure in all treated mice and 4/4”. Moreover, the “parasitemia burden on Day 5” value with blood-stage P. yoelii [4] (TQ 15 + T111 0 mg/kg), in the data set with blood-stage P. yoelii [4] (TQ 20 + T111 0 mg/kg), with blood-stage P. yoelii [4] (TQ 30 + T111 0 mg/kg) and with blood-stage P. yoelii [4] (TQ 40 + T111 0 mg/kg) was 0 throughout. In addition, the IC50 stood at 180 nM in [1] (prophylactic mode, hypnozoite); 170 nM in data set [1] (prophylactic mode, schizont); 8100 nM in data set [1] (radical cure mode, hypnozoite); 9800 nM in data set [1] (radical cure mode, schizont). Moreover, the CC50 at 4 days in data set [2] was above 20000 nM. Moreover, the “protection from liver-stage infection” value in [5] (1 mg/kg/day oral) was “did not clear liver-stage infection”; in data set [5] (10 mg/kg/day oral), “full protection”. The T1/2 was 75 h in [6] (mouse liver, ref internal data from WRAIR); 50 h in [6] (mouse plasma, ref internal data from WRAIR); 336 h in data set [7].

For the compound `CCN(CC)CCCC(C)Nc1ccnc2cc(Cl)ccc12` (centres unmarked) [CQ, chloroquine], the IC50 at 24 h in data set [8] (HepG2) worked out at 68600 nM. Also, the IC50 in data set [9] (Dd2) is 181 ± 15 nM; in data set [9] (Dd2-A131S-140I-259L-264L), 205 ± 21 nM; in data set [9] (Dd2-B131S-140I-259L-264L), 168 ± 31 nM; in [9] (Dd2-D0119L-131S-259L (pfdhodh mutation)), 210 ± 34 nM; in data set [9] (Dd2-D1131S-140I-259L (pfdhodh mutation)), 162 ± 18 nM; in [10] (read-out: in vitro IC50 vs P. falciparum, D6), 14 ± 0.7 nM. The half-maximal inhibitory concentration (IC50) came out at 79 ± 16 nM in data set [10] (read-out: in vitro IC50 vs P. falciparum, D10yDHODH); 209 ± 26 nM in data set [10] (read-out: in vitro IC50 vs P. falciparum, Dd2-D1^I22L (ELQ-300-resistant)); 211 ± 7.6 nM in [10] (read-out: in vitro IC50 vs P. falciparum, Tm90-C2B (cyt b Y268S, ATV-resistant)). Also, the T1/2 entry in data set [6] (healthy mice, ref PMID: 21646487) was “about 46 h”; in data set [7] it was 480 to 960 h.

`OC(c1cc(C(F)(F)F)nc2c(C(F)(F)F)cccc12)C1CCCCN1` (centres unmarked) [mefloquine]: in data set [8] (HepG2 cells), the IC50 at 24 h stood at 4940 nM.

Values taken from publication PMC13168289, “Potent acridone antimalarial against all three life stages of Plasmodium” (Nature Communications, 2026).
